Active and inactive are the calls of the source. The rule behind the calls is not given here.
Tested on: rodent carcinogenicity bioassays, tumor incidence
Test: CCRIS carcinogenicity studies
Outline: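 NCI-built, expert-reviewed records of carcinogenicity and related test outcomes (mutagenicity, tumor promotion/inhibition) compiled from published and report sources, historical span 1985-2011, not updated.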

SMILES: c1ccc(C2CO2)cc1 (stereo not given)
- carcinogen call (Species: MOUSE, Strain/Sex: B6C3F1/FEMALE, Route: GAVAGE, Dose: 0, 375, 750 MG/KG IN CORN OIL 3 D/WK FOR UP TO 104 WK (STUDY DURATION: 24 MO), Dose: 0, 375, 750 MG/KG IN CORN OIL 3 D/WK FOR UP TO 104 WK (STUDY DURATION: 24 MO), Tumor Site: Type of Lesion: FORESTOMACH: PAPILLOMA, CARCINOMA): active; positive
- carcinogen call (Species: MOUSE, Strain/Sex: B6C3F1/MALE, Route: GAVAGE, Dose: 0, 375, 750 MG/KG IN CORN OIL 3 D/WK FOR UP TO 104 WK (STUDY DURATION: 24 MO), Dose: 0, 375, 750 MG/KG IN CORN OIL 3 D/WK FOR UP TO 104 WK (STUDY DURATION: 24 MO), Tumor Site: Type of Lesion: LIVER: CARCINOMA OR ADENOMA, FORESTOMACH: PAPILLOMA, CARCINOMA): active; positive
- carcinogen call (Species: RAT, Strain/Sex: BDIV/FEMALE, Route: GAVAGE, Dose: 0, 100-150 MG/KG IN OLIVE OIL 1/WK FOR 96 WK ADMINISTERED TO OFFSPRING OF FEMALE RATS GIVEN 200 MG/KG ONCE ON DAY 17 OF, Tumor Site: Type of Lesion: FORESTOMACH: CARCINOMA IN SITU, CARCINOMA): active; positive
- carcinogen call (Species: RAT, Strain/Sex: BDIV/FEMALE, Route: GAVAGE, Dose: 0, 200 MG/KG ONCE IN OLIVE OIL ON DAY 17 OF PREGNANCY (STUDY DURATION: 120 WK)): inactive; negative
- carcinogen call (Species: RAT, Strain/Sex: BDIV/MALE, Route: GAVAGE, Dose: 0, 100-150 MG/KG IN OLIVE OIL 1/WK FOR 96 WK ADMINISTERED TO OFFSPRING OF FEMALE RATS GIVEN 200 MG/KG ONCE ON DAY 17 OF, Tumor Site: Type of Lesion: FORESTOMACH: PAPILLOMA, CARCINOMA IN SITU, CARCINOMA): active; positive
- carcinogen call (Species: RAT, Strain/Sex: F344/FEMALE, Route: GAVAGE, Dose: 0, 275, 550 MG/KG IN CORN OIL 3 D/WK FOR 104 WK (STUDY DURATION: 24 MO), Dose: 0, 275, 550 MG/KG IN CORN OIL 3 D/WK FOR 104 WK (STUDY DURATION: 24 MO), Tumor Site: Type of Lesion: FORESTOMACH: PAPILLOMA, SQUAMOUS CELL CARCINOMA): active; positive
- carcinogen call (Species: RAT, Strain/Sex: F344/MALE, Route: GAVAGE, Dose: 0, 275, 550 MG/KG IN CORN OIL 3 D/WK FOR 104 WK (STUDY DURATION: 24 MO), Dose: 0, 275, 550 MG/KG IN CORN OIL 3 D/WK FOR 104 WK (STUDY DURATION: 24 MO), Tumor Site: Type of Lesion: FORESTOMACH: PAPILLOMA, SQUAMOUS CELL CARCINOMA): active; positive
- carcinogen call (Species: RAT, Strain/Sex: SPRAGUE-DAWLEY/FEMALE, Route: GAVAGE, Dose: 0, 50, 250 MG/KG BW IN OLIVE OIL 1/D 4-5 D/WK FOR 52 WK (STUDY DURATION: LIFETIME), Dose: 0, 50, 250 MG/KG BW IN OLIVE OIL 1/D 4-5 D/WK FOR 52 WK (STUDY DURATION: LIFETIME), Tumor Site: Type of Lesion: [BRAIN WAS ONLY SITE EVALUATED]): inactive; negative
- carcinogen call (Species: RAT, Strain/Sex: SPRAGUE-DAWLEY/FEMALE, Route: INTRAGASTRIC, Dose: 0, 50, 250 MG/KG IN OLIVE OIL 1/D, 4-5 D/WK FOR 52 WK (STUDY DURATION: LIFESPAN, Dose: 0, 50, 250 MG/KG IN OLIVE OIL 1/D, 4-5 D/WK FOR 52 WK (STUDY DURATION: LIFESPAN, Tumor Site: Type of Lesion: FORESTOMACH: PAPILLOMA OR ACANTHOMA, SQUAMOUS CELL CARCINOMA): active; positive
- carcinogen call (Species: RAT, Strain/Sex: SPRAGUE-DAWLEY/MALE, Route: GAVAGE, Dose: 0, 50, 250 MG/KG BW IN OLIVE OIL 1/D 4-5 D/WK FOR 52 WK (STUDY DURATION: LIFETIME), Dose: 0, 50, 250 MG/KG BW IN OLIVE OIL 1/D 4-5 D/WK FOR 52 WK (STUDY DURATION: LIFETIME), Tumor Site: Type of Lesion: [BRAIN WAS ONLY SITE EVALUATED]): inactive; negative
- carcinogen call (Species: RAT, Strain/Sex: SPRAGUE-DAWLEY/MALE, Route: INTRAGASTRIC, Dose: 0, 50, 250 MG/KG IN OLIVE OIL 1/D, 4-5 D/WK FOR 52 WK (STUDY DURATION: LIFESPAN, Dose: 0, 50, 250 MG/KG IN OLIVE OIL 1/D, 4-5 D/WK FOR 52 WK (STUDY DURATION: LIFESPAN, Tumor Site: Type of Lesion: FORESTOMACH: PAPILLOMA OR ACANTHOMA, SQUAMOUS CELL CARCINOMA): active; positive

SMILES: O[C@@H]1[C@@H](O)[C@@H]2OC[C@@H](O2)[C@H]1O
- carcinogen call (Species: MOUSE, Strain/Sex: CD-1/FEMALE, Route: DERMAL, Dose: 0, 20 UMOL/0.1 ML DMSO 2/WK FOR 5 WK FOLLOWED 1 WK LATER BY 0.1 ML ACETONE 2/WK FOR 47 WK (STUDY DURATION: 52 WK)): inactive; negative

SMILES: O=C(O)c1ccccc1O
- carcinogen call (Species: Mouse, Strain/Sex: SKH-1/Female (18/Group), Route: Dermal, Dose: 0, 2, 4% administered as topical cream (pH 4) , 5 d/wk, 40 wk, animals held an additional 12 wk for study duration of 1, Tumor Site: Type of Lesion: Skin: Carcinoma in situ, squamous cell carcinoma, basal cell carcinoma): inactive; negative. when synthetic solar light (ssl) at 0.3 and 0.6 the minimal erythema d
- carcinogen call (Species: Mouse, Strain/Sex: SKH-1/Male (18/Group), Route: Dermal, Dose: 0, 2, 4% administered as topical cream (pH 4) , 5 d/wk, 40 wk, animals held an additional 12 wk for study duration of 1, Tumor Site: Type of Lesion: Skin: Carcinoma in situ, squamous cell carcinoma, basal cell carcinoma): inactive; negative. when synthetic solar light (ssl) at 0.3 and 0.6 the minimal erythema d

SMILES: Oc1cc2c(c3ccc4ccccc4c13)CCC2
- carcinogen call (Species: MOUSE, Strain/Sex: TO/MALE, FEMALE, Route: DERMAL, Dose: 0, 50 UG (10 µL OF A 0.5% W/V TOLUENE SOLUTION) 2/WK FOR 70 WK (STUDY DURATION: 70 WK), Tumor Site: Type of Lesion: SKIN: PAPILLOMA OR CARCINOMA): active; positive

SMILES: O=C(CO)CO
- carcinogen call (Species: MOUSE, Strain/Sex: SWISS/FEMALE, Route: DERMAL, Dose: 0, 5, 40% AQUEOUS SOLUTION APPLIED 1/WK FOR 80 WK (STUDY DURATION: 80 WK), Dose: 0, 5, 40% AQUEOUS SOLUTION APPLIED 1/WK FOR 80 WK (STUDY DURATION: 80 WK)): inactive; negative
- carcinogen call (Species: MOUSE, Strain/Sex: SWISS/MALE, Route: DERMAL, Dose: 0, 5%, 40% AQUEOUS SOLUTION APPLIED 1/WK FOR 80 WK (STUDY DURATION: 80 WK), Dose: 0, 5%, 40% AQUEOUS SOLUTION APPLIED 1/WK FOR 80 WK (STUDY DURATION: 80 WK)): inactive; negative

SMILES: O=C1OC2(c3ccccc31)c1ccc(O)c(I)c1Oc1c2ccc(O)c1I
- carcinogen call (Species: MOUSE, Strain/Sex: ICR/FEMALE, Route: DERMAL, Dose: 0, 1 MG IN 0.1 ML DISTILLED WATER 2/WK FOR A MEAN TOTAL DOSE OF 132.6 MG (STUDY DURATION: 18 MO)): inactive; negative
- carcinogen call (Species: MOUSE, Strain/Sex: ICR/MALE, Route: DERMAL, Dose: 0, 1 MG IN 0.1 ML DISTILLED WATER 2/WK FOR A MEAN TOTAL DOSE OF 132.6 MG (STUDY DURATION: 18 MO)): inactive; negative

SMILES: COC(=O)Nc1nc2ccccc2[nH]1
- carcinogen call (Species: Mouse, Strain/Sex: CD-1/Female (80/sex/dose), Route: Oral, Dose: 0, 500, 1500, 7500 ppm in feed for 2 yr, Dose: 0, 500, 1500, 7500 ppm in feed for 2 yr, Tumor Site: Type of Lesion: Liver: Hepatocellular adenoma (0/68, 5/62, 5/66, 3/71), Hepatocellular carcinoma (2/68, 4/62, 15/66, 12/71), Combined (2, Tumor Site: Type of Lesion: Liver: Hepatocellular adenoma (0/68, 5/62, 5/66, 3/71), Hepatocellular carcinoma (2/68, 4/62, 15/66, 12/71), Combined (2): active; positive: purity 99.3%
- carcinogen call (Species: Mouse, Strain/Sex: CD-1/Male (80/sex/dose); Route: Oral; Dose: 0; 500; 1500; 7500 ppm in feed for 2 yr except for highest dose where animals terminated at week 73 with 29% survival); Dose: 0; 500; 1500; 7500 ppm in feed for 2 yr except for highest dose where animals terminated at week 73 with 29% survival)): inactive; negative: purity 99.3%

SMILES: Cc1cc(Cl)ccc1N
- carcinogen call (Species: MOUSE, Strain/Sex: B6C3F1/FEMALE, Route: ORAL, Dose: 0, 1250, 5000 PPM IN DIET, Dose: 0, 1250, 5000 PPM IN DIET, Tumor Site: Type of Lesion: BLOOD VESSELS: HEMANGIOMA OR HEMANGIOSARCOMA): active; positive
- carcinogen call (Species: MOUSE, Strain/Sex: B6C3F1/MALE, Route: ORAL, Dose: 0, 3750, 15000 PPM IN DIET, Dose: 0, 3750, 15000 PPM IN DIET, Tumor Site: Type of Lesion: BLOOD VESSELS: HEMANGIOMA OR HEMANGIOSARCOMA): active; positive
- carcinogen call (Species: RAT, Strain/Sex: F344/FEMALE, Route: ORAL, Dose: 0, 1250, 5000 PPM IN DIET, Dose: 0, 1250, 5000 PPM IN DIET): inactive; negative
- carcinogen call (Species: RAT, Strain/Sex: F344/MALE, Route: ORAL, Dose: 0, 1250, 5000 PPM IN DIET, Dose: 0, 1250, 5000 PPM IN DIET): inactive; negative
